What all share (assay type): cell-based, Human
In test [1] the test system is Kasumi-1 (KIT N822K). As to the kind of experiment: In vitro growth inhibition of Kasumi-1 tumor cells (MTT/CCK8). As to conditions: in vitro growth inhibition (or induction of apoptosis), cells cultured 3 to 5 days, MTT (CCK8), read-out: IC50 Kasumi-1 (KIT N822K).
The subject of test [2] is H1581 (FGFR1 amp). As to the kind of experiment: In vitro growth inhibition of H1581 tumor cells (MTT/CCK8). Particulars: in vitro growth inhibition (or induction of apoptosis), cells cultured 3 to 5 days, MTT (CCK8), read-out: IC50 H1581 (FGFR1 amp).
Test [3] concerns KCL-22 (BCR-ABL). Kind of test: In vitro growth inhibition of KCL-22 tumor cells (MTT/CCK8). Particulars: in vitro growth inhibition (or induction of apoptosis), cells cultured 3 to 5 days, MTT (CCK8), read-out: IC50 KCL-22 (BCR-ABL).
Test [4] concerns Hep3B2 (FGFR3/4+++). As to the kind of experiment: In vitro growth inhibition of Hep3B2 tumor cells (MTT/CCK8). As to conditions: in vitro growth inhibition (or induction of apoptosis), cells cultured 3 to 5 days, MTT (CCK8), read-out: IC50 Hep3B2 (FGFR3/4+++).
In test [5] the test system is KATO III (FGFR2 amp). As to the kind of experiment: In vitro growth inhibition of KATO III tumor cells (MTT/CCK8). As to conditions: in vitro growth inhibition (or induction of apoptosis), cells cultured 3 to 5 days, MTT (CCK8), read-out: IC50 KATO III (FGFR2 amp).
In test [6] the test system is MOLM-13 (FLT3-ITD). As to the kind of experiment: In vitro growth inhibition of MOLM-13 tumor cells (MTT/CCK8). Particulars: in vitro growth inhibition (or induction of apoptosis), cells cultured 3 to 5 days, MTT (CCK8), read-out: IC50 MOLM-13 (FLT3-ITD).
Test [7] deals with H1703 (PDGFRa amp). Kind of test: In vitro growth inhibition of H1703 tumor cells (MTT/CCK8). Particulars: in vitro growth inhibition (or induction of apoptosis), cells cultured 3 to 5 days, MTT (CCK8), read-out: IC50 H1703 (PDGFRa amp).
For test [8], the system named is Karpas 299 (NPM-ALK). Kind of test: In vitro growth inhibition of Karpas 299 tumor cells (MTT/CCK8). Particulars: in vitro growth inhibition (or induction of apoptosis), cells cultured 3 to 5 days, MTT (CCK8), read-out: IC50 Karpas 299 (NPM-ALK).

Like-named read-outs stand apart in the source and are kept apart here.

Turning to `CNC(=O)c1cc2c(Oc3ccc(NC(=O)Nc4cc(C(C)(C)C)nn4C)c(Cl)c3)ccnc2cc1OC` [Compound 46, 4-{4-[3-(5-tert-butyl-2-methyl-2H-pyrazol-3-yl)-ureido]-3-chloro-phenoxy}-7-methoxy quinolin-6-carboxylic acid methylamide], the IC50 came out at 14.4 nM in test [1] (Homo sapiens, Kasumi 1); 3.06 nM in test [2] (Homo sapiens, NCI-H1581); 8.17 nM in test [3] (Homo sapiens, KCL-22); 39.1 nM in test [4] (Homo sapiens, Hep3B); 0.98 nM in test [5] (Homo sapiens, KATO III); 6.98 nM in test [6] (Homo sapiens, MOLM-13). For the same molecule, the IC50 in test [7] (Homo sapiens, NCI-H1703) worked out at 8.8 nM; in test [8] (Homo sapiens, KARPAS-299), 384 nM.

With `COc1cc2nccc(Oc3ccc(NC(=O)Nc4cc(C(C)(C)C)on4)c(C)c3)c2cc1C(N)=O` [Compound 6, 4-{4-[3-(5-tert-butyl-isoxazol-3-yl)-ureido]-3-methyl-phenoxy}-7-methoxyquinolin-6-carboxamide], the IC50 was 26.1 nM in test [1] (Homo sapiens, Kasumi 1); 10.6 nM in test [2] (Homo sapiens, NCI-H1581); 17.8 nM in test [3] (Homo sapiens, KCL-22); 45.3 nM in test [4] (Homo sapiens, Hep3B); 2.86 nM in test [5] (Homo sapiens, KATO III); 20.9 nM in test [6] (Homo sapiens, MOLM-13). Further, the IC50 in test [7] (Homo sapiens, NCI-H1703) amounted to 15.6 nM; in test [8] (Homo sapiens, KARPAS-299), 689 nM.

As to `COc1cc2nccc(Oc3ccc(NC(=O)Nc4cc(C(C)(C)C)n[nH]4)c(Cl)c3)c2cc1C(=O)N(C)C` [Compound 61], the IC50 turned out to be 571 nM in test [1] (Homo sapiens, Kasumi 1); 133 nM in test [2] (Homo sapiens, NCI-H1581); 599 nM in test [3] (Homo sapiens, KCL-22); 368 nM in test [4] (Homo sapiens, Hep3B); 18.4 nM in test [5] (Homo sapiens, KATO III); 61.4 nM in test [6] (Homo sapiens, MOLM-13). Further, the IC50 stood at 75.8 nM in test [7] (Homo sapiens, NCI-H1703) and 606 nM in test [8] (Homo sapiens, KARPAS-299).

`COc1cc2nccc(Oc3ccc(NC(=O)Nc4cc(C(C)(C)C)n[nH]4)cn3)c2cc1NC(C)=O` [Compound 104, N-(4-{5-[3-(5-tert-butyl-2H-pyrazol-3-yl)-ureido]-pyridin-2-yloxy}-7-methoxy-quinolin-6-yl)-acetamide]: the IC50 is greater than 1000 nM in test [1] (Homo sapiens, Kasumi 1); 160 nM in test [2] (Homo sapiens, NCI-H1581); greater than 1000 nM in test [3] (Homo sapiens, KCL-22); 526 nM in test [4] (Homo sapiens, Hep3B); 40.1 nM in test [5] (Homo sapiens, KATO III); 1.17 nM in test [6] (Homo sapiens, MOLM-13). The IC50 in test [7] (Homo sapiens, NCI-H1703) turned out to be 163 nM; in test [8] (Homo sapiens, KARPAS-299), 768 nM.

As to `COCCNC(=O)c1cc2c(Oc3ccc(NC(=O)Nc4cc(C(C)(C)C)n[nH]4)c(Cl)c3)ccnc2cc1OC` [Compound 62, 4-{4-[3-(5-tert-butyl-2H-pyrazol-3-yl)-ureido]-3-chloro-phenoxy}-7-methoxyquinolin-6-carboxylic acid (2-methoxy-ethyl)-amide], the IC50 in test [1] (Homo sapiens, Kasumi 1) was 47.5 nM; in test [2] (Homo sapiens, NCI-H1581), 13.7 nM; in test [3] (Homo sapiens, KCL-22) it was 25.8 nM; in test [4] (Homo sapiens, Hep3B) it was 73.2 nM; in test [5] (Homo sapiens, KATO III), 1.89 nM; in test [6] (Homo sapiens, MOLM-13), 7.83 nM. The IC50 in test [7] (Homo sapiens, NCI-H1703) amounted to 93.1 nM; in test [8] (Homo sapiens, KARPAS-299), 312 nM.

Take `COc1cc2nccc(Oc3ccc(NC(=O)Nc4cc(C(C)(C)C)n[nH]4)cc3Cl)c2cc1NC(C)=O` [Compound 101, N-(4-{4-[3-(5-tert-butyl-2H-pyrazol-3-yl)-ureido]-2-chloro-phenoxy}-7-methoxy-quinolin-6-yl)-acetamide]: the IC50 stood at 24.1 nM in test [1] (Homo sapiens, Kasumi 1); 9.56 nM in test [2] (Homo sapiens, NCI-H1581); 11 nM in test [3] (Homo sapiens, KCL-22); 110 nM in test [4] (Homo sapiens, Hep3B); 2.34 nM in test [5] (Homo sapiens, KATO III); 0.08 nM in test [6] (Homo sapiens, MOLM-13). Besides, the IC50 was 61.3 nM in test [7] (Homo sapiens, NCI-H1703) and 64.3 nM in test [8] (Homo sapiens, KARPAS-299).

As for `C=CC(=O)n1nc(C(C)(C)C)cc1NC(=O)Nc1ccc(Oc2ccnc3cc(OC)c(C(N)=O)cc23)cc1Cl` [Compound 28, 4-{4-[3-(2-acryloyl-5-tert-butyl-2H-pyrazol-3-yl)-ureido]-3-chloro-phenoxy}-7-methoxyquinolin-6-carboxamide], the IC50 is 32.5 nM in test [1] (Homo sapiens, Kasumi 1); 17.4 nM in test [2] (Homo sapiens, NCI-H1581); 25.1 nM in test [3] (Homo sapiens, KCL-22); 24.2 nM in test [4] (Homo sapiens, Hep3B); 0.73 nM in test [5] (Homo sapiens, KATO III); 6.53 nM in test [6] (Homo sapiens, MOLM-13). The IC50 in test [7] (Homo sapiens, NCI-H1703) was found to be 17.1 nM; in test [8] (Homo sapiens, KARPAS-299) it was 698 nM.

On to `COc1cc2nccc(Oc3ccc(NC(=O)Nc4cc(C(C)(C)C)on4)c(Cl)c3)c2cc1NC(C)=O` [Compound 20], for which the IC50 in test [1] (Homo sapiens, Kasumi 1) amounted to 22.1 nM; in test [2] (Homo sapiens, NCI-H1581), 1.75 nM; in test [3] (Homo sapiens, KCL-22) it was 5.55 nM; in test [4] (Homo sapiens, Hep3B), 13.9 nM; in test [5] (Homo sapiens, KATO III) it was 1.14 nM; in test [6] (Homo sapiens, MOLM-13), 2.21 nM. Besides, the IC50 in test [7] (Homo sapiens, NCI-H1703) was found to be 8.71 nM; in test [8] (Homo sapiens, KARPAS-299), 195 nM.

For the molecule `CC(C)(C)c1cc(NC(=O)Nc2ccc(Oc3ccnc4cc(OCCN5CCOCC5)c(C(N)=O)cc34)cc2Cl)[nH]n1` [Compound 81, 4-{4-[3-(5-tert-butyl-2H-pyrazol-3-yl)-ureido]-3-chloro-phenoxy}-7-(2-morpholin-4-yl-ethoxy) pyridine-6-carboxamide], the IC50 in test [1] is 26.7 nM; in test [2], 4.94 nM; in test [3], 34.9 nM; in test [4], 44.7 nM; in test [5], 0.31 nM; in test [6], 11.9 nM. Further, the IC50 is 11.3 nM in test [7] and 466 nM in test [8].

Turning to `COc1cc2nccc(Nc3ccc(NC(=O)Nc4cc(C(C)(C)C)on4)c(Cl)c3)c2cc1C(N)=O` [Compound 77, 4-{4-[3-(5-tert-butyl-isoxazol-3-yl)-ureido]-3-chlorophenylamino}-7-methoxyquinolin-6-carboxamide], the IC50 in test [1] (Homo sapiens, Kasumi 1) is 518 nM; in test [2] (Homo sapiens, NCI-H1581), 243 nM; in test [3] (Homo sapiens, KCL-22) it was 294 nM; in test [4] (Homo sapiens, Hep3B) it was 494 nM; in test [5] (Homo sapiens, KATO III), 17 nM; in test [6] (Homo sapiens, MOLM-13) it was 42.5 nM. Moreover, the IC50 in test [7] (Homo sapiens, NCI-H1703) is 212 nM; in test [8] (Homo sapiens, KARPAS-299), greater than 1000 nM.

Consider `COc1cc2nccc(Oc3ccc(NC(=O)Nc4cc(C5CC5)n[nH]4)c(Cl)c3)c2cc1C(N)=O` [Compound 41, 4-{3-chloro-4-[3-(5-cyclopropyl-2H-pyrazol-3-yl)-ureido]-phenoxy}-7-methoxyquinolin-6-carboxamide], for which the IC50 in test [1] (Homo sapiens, Kasumi 1) was determined as 736 nM; in test [2] (Homo sapiens, NCI-H1581) it was 450 nM; in test [3] (Homo sapiens, KCL-22), 353 nM; in test [4] (Homo sapiens, Hep3B) it was 514 nM; in test [5] (Homo sapiens, KATO III), 40.1 nM; in test [6] (Homo sapiens, MOLM-13), 134 nM. The IC50 in test [7] (Homo sapiens, NCI-H1703) is 124 nM; in test [8] (Homo sapiens, KARPAS-299), greater than 1000 nM.

On to `COc1cc2nccc(Nc3ccc(NC(=O)Nc4cc(C(C)(C)C)on4)cc3)c2cc1C(N)=O` [Compound 78, 4-{4-[3-(5-tert-butyl-isoxazol-3-yl)-ureido]-phenylamino}-7-methoxyquinolin-6-carboxamide], for which the IC50 in test [1] (Homo sapiens, Kasumi 1) was greater than 1000 nM; in test [2] (Homo sapiens, NCI-H1581), 684 nM; in test [3] (Homo sapiens, KCL-22) it was greater than 1000 nM; in test [4] (Homo sapiens, Hep3B), 502 nM; in test [5] (Homo sapiens, KATO III), 36.6 nM; in test [6] (Homo sapiens, MOLM-13) it was 1.37 nM. For the same molecule, the IC50 was 447 nM in test [7] (Homo sapiens, NCI-H1703) and greater than 1000 nM in test [8] (Homo sapiens, KARPAS-299).

Regarding `CC(C)(C)c1cc(NC(=O)Nc2ccc(Oc3ccnc4c(C(F)(F)F)cccc34)cc2Cl)no1` [Compound 114, 1-(5-tert-butyl-isoxazol-3-yl)-3-[2-chloro-4-(8-trifluoromethyl-quinolin-4-yloxy)-phenyl]-urea], the IC50 was greater than 1000 nM in test [1] (Homo sapiens, Kasumi 1); greater than 1000 nM in test [2] (Homo sapiens, NCI-H1581); greater than 5000 nM in test [3] (Homo sapiens, KCL-22); greater than 1000 nM in test [4] (Homo sapiens, Hep3B); greater than 1000 nM in test [5] (Homo sapiens, KATO III); greater than 1000 nM in test [6] (Homo sapiens, MOLM-13). Besides, the IC50 in test [7] (Homo sapiens, NCI-H1703) is greater than 1000 nM; in test [8] (Homo sapiens, KARPAS-299) it was greater than 1000 nM.

The record behind these values is patent US10800741B2 (ANCUREALL PHARMACEUTICAL (SHANGHAI) CO., LTD., priority 2017, dated 2020).
